Reference: PubChem BioAssay AID2060912 (Molecular Pharmacology Branch, DTP, NCI, 2025)

System: HUVEC/MSC spheroids viability
Test: Human HUVEC/MSC cell line growth inhibition [KRAS2];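 on viability, T/C: percent of DMSO vehicle control luminescence so 100% = untreated viability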
Conditions: for IC50: curve of first compound; for viability, T/C: stronger effect = lower value
From the text: Multicellular complex tumor spheroid response to RAS pathway inhibitors in combination with a targeted agents in patient-derived cell lines with oncogenic KRAS variants from multiple cancer types
A high-throughput screen of multi-cell type tumor spheroids was designed to identify active combinations of targeted small molecules and KRAS pathway inhibitors. Complex spheroids include a stromal component modeled by human endothelial cells (HUVEC) and fibroblasts modeled by human mesenchymal stem cells (MSCs). The concentration ranges selected for each drug and investigational agent were based upon clinically achievable concentrations if the clinical Cmax of the agent was known. * [This particular assayID is a followup dataset requested by reviewers of the manuscript. It is a test of the HUVEC and MSC without the tumor cells, and was conducted using different drug plates and a different plate layout.]
Compounds. The drugs and investigational agents: BI-3406 (NSC825286), BAY-293 (NSC824723), batoprotafib (TNO155; NSC825523), sotorasib (AMG 510; NSC818433), MRTX1257 (NSC819558), elimusertib (BAY 1895344; NSC800525), molibresib (GSK525762; NSC774829), temuterkib (LY3214996; NSC803410), venetoclax (NSC766270), alisertib (NSC759677), olaparib (NSC753686), talazoparib (NSC767125), erdafitinib (NSC781556), ipatasertib (NSC767898), cabozantinib (NSC761068), nintedanib (NSC756659), abemaciclib (NSC768073), docetaxel (NSC628503), trametinib (NSC758246), and sapanisertib (NSC764658) were obtained from the National Cancer Institute (NCI) Developmental Therapeutics Program Chemical Repository. The FDA-approved anticancer drug set is available from the Developmental Therapeutics Program. […] The stock solutions were prepared in dimethyl sulfoxide (DMSO, Sigma-Aldrich, St. Louis, MO, cat. D2650) at 800-fold the tested concentration and stored at -70 degrees C prior to their use. All drugs and investigational agents were tested over a range starting from a high concentration at or near the clinical Cmax and decreasing in half-log increments. If the clinical Cmax for an agent had not been determined, the highest concentration tested was 10 microM.
Cell Culture. All cells were maintained in an incubator at 37 degrees C and 5% CO2 with 95% humidity. The PDC lines were cultured according to standard operating procedures established by the NCI PDMR (https://pdmr.cancer.gov/sops/default.htm). Briefly, all PDCs were thawed and cultured in Matrigel-coated flasks prepared with a working solution of 1X Ham's F-12 nutrient mix, without supplementation (Invitrogen, Waltham, MA, cat. 11765054), 100 U/mL penicillin-streptomycin (Invitrogen, cat. 15140122), and 2.5% Matrigel (Corning Inc., Corning, NY, cat. 354248) for the first three passages. All PDCs were cultured in complete DMEM/F-12 media containing advanced DMEM/F-12 (Invitrogen, cat. 12634028), 4.9% defined fetal bovine serum, heat inactivated (HyClone Laboratories Inc., Logan, UT, cat. SH30070.03HI), 389 ng/mL hydrocortisone (Sigma-Aldrich, cat. H4001), 9.7 ng/mL human EGF recombinant protein (Invitrogen, cat. PHG0313), 23.4 microg/mL adenine (Sigma-Aldrich, cat. A2786), 97.3 U/mL penicillin-streptomycin (Invitrogen, cat. 15140122), 1.9 mM L-glutamine (Invitrogen, cat. 25030081), and 9.7 microM Y-27632 dihydrochloride (Tocris Bioscience, Bristol, United Kingdom, cat. 1254). The PDCs were cultured in complete DMEM/F12 media without 9.7 microM Y-27632 dihydrochloride for at least two passages prior to the screen. The established cell line HOP-62 was cultured in RPMI 1640 medium, HEPES (Invitrogen, cat. 22400105) with 10% defined fetal bovine serum (HyClone Laboratories Inc., cat. SH30070.03) and 2 mM L-glutamine (Invitrogen, cat. 25030081). The pooled donor HUVEC were cultured in endothelial cell growth medium 2 (PromoCell, Heidelberg, Germany, cat. C-22011) and the hMSC were cultured in mesenchymal stem cell growth medium 2 (PromoCell, cat. C-28009). […]

`COC(=O)c1ccc2c(C(=Nc3ccc(N(C)C(=O)CN4CCN(C)CC4)cc3)c3ccccc3)c(O)[nH]c2c1` + C=CC(=O)N1CCN(c2nc(OCC3CCCN3C)nc3c2CCN(c2cccc4cccc(C)c24)C3)CC1CC#N gave an IC50 (second compound 0.00949 µM) of 2180 nM, an IC50 (second compound 0.03 µM) of 2220 nM and an IC50 (second compound 0.0949 µM) of 2910 nM. For the same compound, the IC50 (second compound 0.3 µM) was 2810 nM, the IC50 (second compound 0.949 µM) was 1640 nM and the IC50 (second compound 3 µM) was 894 nM. For the same compound, the viability, T/C (second compound 0.00949 µM, first compound 0.0316 µM) was 91.3%, the viability, T/C (second compound 0.00949 µM, first compound 0.1 µM) was 82.5% and the viability, T/C (second compound 0.00949 µM, first compound 0.316 µM) was 89.5%. It also gave a viability, T/C (second compound 0.00949 µM, first compound 1 µM) of 57.8%, a viability, T/C (second compound 0.00949 µM, first compound 3.16 µM) of 45.7% and a viability, T/C (second compound 0.00949 µM, first compound 10 µM) of 0.43%. It also gave a viability, T/C (second compound 0.03 µM, first compound 0.0316 µM) of 81.1%, a viability, T/C (second compound 0.03 µM, first compound 0.1 µM) of 102% and a viability, T/C (second compound 0.03 µM, first compound 0.316 µM) of 76.4%. It also gave a viability, T/C (second compound 0.03 µM, first compound 1 µM) of 52.6%, a viability, T/C (second compound 0.03 µM, first compound 3.16 µM) of 52.6% and a viability, T/C (second compound 0.03 µM, first compound 10 µM) of 0.35%. The viability, T/C (second compound 0.0949 µM, first compound 0.0316 µM) was 76%, the viability, T/C (second compound 0.0949 µM, first compound 0.1 µM) was 78.3% and the viability, T/C (second compound 0.0949 µM, first compound 0.316 µM) was 93.3%. It also gave a viability, T/C (second compound 0.0949 µM, first compound 1 µM) of 68.1%, a viability, T/C (second compound 0.0949 µM, first compound 3.16 µM) of 49.2% and a viability, T/C (second compound 0.0949 µM, first compound 10 µM) of 0.37%. It also gave a viability, T/C (second compound 0.3 µM, first compound 0.0316 µM) of 60.5%, a viability, T/C (second compound 0.3 µM, first compound 0.1 µM) of 78.7% and a viability, T/C (second compound 0.3 µM, first compound 0.316 µM) of 78.3%. The viability, T/C (second compound 0.3 µM, first compound 1 µM) was 70.3%, the viability, T/C (second compound 0.3 µM, first compound 3.16 µM) was 47.7% and the viability, T/C (second compound 0.3 µM, first compound 10 µM) was 0.35%. The viability, T/C (second compound 0.949 µM, first compound 0.0316 µM) was 57.5%, the viability, T/C (second compound 0.949 µM, first compound 0.1 µM) was 73.2% and the viability, T/C (second compound 0.949 µM, first compound 0.316 µM) was 91.1%. The viability, T/C (second compound 0.949 µM, first compound 1 µM) was 55.5%, the viability, T/C (second compound 0.949 µM, first compound 3.16 µM) was 34.6% and the viability, T/C (second compound 0.949 µM, first compound 10 µM) was 0.31%. For the same compound, the viability, T/C (second compound 3 µM, first compound 0.0316 µM) was 65.2%, the viability, T/C (second compound 3 µM, first compound 0.1 µM) was 96.5% and the viability, T/C (second compound 3 µM, first compound 0.316 µM) was 84.3%. For the same compound, the viability, T/C (second compound 3 µM, first compound 1 µM) was 46.6%, the viability, T/C (second compound 3 µM, first compound 3.16 µM) was 0.43% and the viability, T/C (second compound 3 µM, first compound 10 µM) was 0.33%.

In the case of `CC(=O)Nc1cccc(-n2c(=O)n(C3CC3)c(=O)c3c(Nc4ccc(I)cc4F)n(C)c(=O)c(C)c32)c1` + COc1cc2nc(C)nc(NC(C)c3cc(N)cc(C(F)(F)F)c3)c2cc1OC1CCOC1, the IC50 (second compound 0.0316 µM) is reported as 15.3 nM, the IC50 (second compound 0.1 µM) is reported as 15.2 nM and the IC50 (second compound 0.316 µM) is reported as 13.1 nM. For the same compound, the IC50 (second compound 1 µM) was 13 nM, the IC50 (second compound 3.16 µM) was 14.4 nM and the IC50 (second compound 10 µM) was 10.4 nM. It also gave a viability, T/C (second compound 0.0316 µM, first compound 94.9 pM) of 126%, a viability, T/C (second compound 0.0316 µM, first compound 0.0003 µM) of 124% and a viability, T/C (second compound 0.0316 µM, first compound 0.000949 µM) of 105%. The viability, T/C (second compound 0.0316 µM, first compound 0.003 µM) was 92.6%, the viability, T/C (second compound 0.0316 µM, first compound 0.00949 µM) was 78.8% and the viability, T/C (second compound 0.0316 µM, first compound 0.03 µM) was 18.3%. The viability, T/C (second compound 0.1 µM, first compound 94.9 pM) was 105%, the viability, T/C (second compound 0.1 µM, first compound 0.0003 µM) was 129% and the viability, T/C (second compound 0.1 µM, first compound 0.000949 µM) was 129%. It also gave a viability, T/C (second compound 0.1 µM, first compound 0.003 µM) of 74.2%, a viability, T/C (second compound 0.1 µM, first compound 0.00949 µM) of 80.2% and a viability, T/C (second compound 0.1 µM, first compound 0.03 µM) of 18.6%. It also gave a viability, T/C (second compound 0.316 µM, first compound 94.9 pM) of 103%, a viability, T/C (second compound 0.316 µM, first compound 0.0003 µM) of 134% and a viability, T/C (second compound 0.316 µM, first compound 0.000949 µM) of 115%. It also gave a viability, T/C (second compound 0.316 µM, first compound 0.003 µM) of 82.6%, a viability, T/C (second compound 0.316 µM, first compound 0.00949 µM) of 68.8% and a viability, T/C (second compound 0.316 µM, first compound 0.03 µM) of 14.6%. It also gave a viability, T/C (second compound 1 µM, first compound 94.9 pM) of 108%, a viability, T/C (second compound 1 µM, first compound 0.0003 µM) of 125% and a viability, T/C (second compound 1 µM, first compound 0.000949 µM) of 91.4%. It also gave a viability, T/C (second compound 1 µM, first compound 0.003 µM) of 76.7%, a viability, T/C (second compound 1 µM, first compound 0.00949 µM) of 73.2% and a viability, T/C (second compound 1 µM, first compound 0.03 µM) of 15.2%. For the same compound, the viability, T/C (second compound 3.16 µM, first compound 94.9 pM) was 91%, the viability, T/C (second compound 3.16 µM, first compound 0.0003 µM) was 104% and the viability, T/C (second compound 3.16 µM, first compound 0.000949 µM) was 113%. It also gave a viability, T/C (second compound 3.16 µM, first compound 0.003 µM) of 68.8%, a viability, T/C (second compound 3.16 µM, first compound 0.00949 µM) of 76.4% and a viability, T/C (second compound 3.16 µM, first compound 0.03 µM) of 15.9%. For the same compound, the viability, T/C (second compound 10 µM, first compound 94.9 pM) was 83%, the viability, T/C (second compound 10 µM, first compound 0.0003 µM) was 99% and the viability, T/C (second compound 10 µM, first compound 0.000949 µM) was 97%. The viability, T/C (second compound 10 µM, first compound 0.003 µM) was 59.6%, the viability, T/C (second compound 10 µM, first compound 0.00949 µM) was 60.4% and the viability, T/C (second compound 10 µM, first compound 0.03 µM) was 5.88%.
